Assay results reported in article PMC6895180 (Nature Communications, 2019).
“And” between values parts separate entries of the source, which are not always exact repeats. Identical values can stand only once. Like-named read-outs stand apart in the source and are kept apart here. Marks after values point to notes of the source that are not given here.

Experiments:
[1] = target: Lister 427WT T. b. brucei; assay: Adenosine deaminase susceptibility (drug sensitivity with/without 2 µM deoxycoformycin); type: cell-based, Trypanosoma brucei brucei
Method: Drug susceptibility tests with Lister 427WT, TbAT1-KO[48], B48[26] and ISMR1[27] were performed using an assay based on the viability indicator dye resazurin in 96-well plates, each well containing 2 × 10^4 cells. The plates were incubated for 48 h with a doubling dilution series of the test compounds in HMI-9/fetal bovine serum at 37 °C/5% CO2 (23 dilutions starting at 100 µM, except for the pentamidine control (50 µM)), after which resazurin (20 µL of 125 µg mL^−1 resazurin sodium salt solution was added to each well (containing 200 µL of cells and test compound)) was added to each well and the plates incubated for another 24 h. Fluorescence was determined using a FLUOstar Optima (BMG Labtech, Durham, NC) and the results fitted to a sigmoid curve with variable slope using Prism 5.0 or Prism 7.04 (GraphPad, San Diego, CA). […]
Adenosine deaminase susceptibility
in the presence or absence of 2 µM 2’-deoxycoformycin. […]

[2] = test system: B48: pentamidine, diminazene and melaminophenyl arsenical resistant T. brucei line; assay: microbe, parasite or virus in culture; type: cell-based, Trypanosoma brucei brucei; conditions: for EC50: Trypanosoma brucei
[3] = test system: T. b. brucei Lister 427WT; assay: Drug susceptibility test (resazurin), Lister 427WT; type: cell-based, Trypanosoma brucei brucei; conditions: Trypanosoma brucei
Method: (§1) Drug susceptibility tests with Lister 427WT, TbAT1-KO[48], B48[26] and ISMR1[27] were performed using an assay based on the viability indicator dye resazurin in 96-well plates, each well containing 2 × 10^4 cells. The plates were incubated for 48 h with a doubling dilution series of the test compounds in HMI-9/fetal bovine serum at 37 °C/5% CO2 (23 dilutions starting at 100 µM, except for the pentamidine control (50 µM)), after which resazurin (20 µL of 125 µg mL^−1 resazurin sodium salt solution was added to each well (containing 200 µL of cells and test compound)) was added to each well and the plates incubated for another 24 h. Fluorescence was determined using a FLUOstar Optima (BMG Labtech, Durham, NC) and the results fitted to a sigmoid curve with variable slope using Prism 5.0 or Prism 7.04 (GraphPad, San Diego, CA).

[4] = test system: TbAT1-KO: T. brucei cell line lacking the TbAT1(P2) transporter gene; assay: microbe, parasite or virus in culture; type: cell-based, Trypanosoma brucei brucei; conditions: for EC50: Trypanosoma brucei
Method: as §1

[5] = test system: ISMR1: isometamidium-resistant T. brucei cell line; assay: microbe, parasite or virus in culture; type: cell-based, Trypanosoma brucei brucei; conditions: for EC50: Trypanosoma brucei
Method: as §1

[6] = test system: T. b. brucei AnTAR1.1 PPYRE9; assay: Mouse model of stage 2 HAT (BLI, parasitaemia, SL-RNA qPCR); type: in vivo; conditions: for BLI of the head region, RLU data: individual animals; for RLU data, individual mice: Melarsoprol
Method: […] Treatment was initiated at 21 dpi. […] Mice were injected i.p. with […] of D-luciferin and anaesthetised using isoflurane. The luminescent signal was acquired from both the dorsal and ventral side of the animals. […] Animals subjected to the different treatment schemes (from 4 wpi) were additionally imaged over a 5 min exposure time for enhanced sensitivity. […] Tissues were weighed and RNA was extracted using the RNeasy Plus Mini Kit (Qiagen) according to the manufacturer’s recommendations. […] A list of primers used is provided in the Supplementary Methods section of the Supplementary Information. BLI images from the IVIS Spectrum In Vivo Imaging System (Perkin Elmer) were analysed using LivingImage v4.3.1. SoftWoRx suite 2.0 for microscopy (image deconvolution), then processing using the Fiji software.

[7] = DCF +, single replicate, read-out: EC50
[8] = DCF -, single replicate, read-out: EC50
[9] = source data, read-out: B48 EC50, AVG
[10] = source data, read-out: s427 EC50, AVG
[11] = source data, read-out: ISMR1 EC50, AVG
[12] = resistance factor vs Lister 427WT

Nc1ncnc2c1c(Br)cn2[C@@H]1O[C@H](CO)C[C@H]1O [FH7429-up (10)]
EC50 ([1]; DCF +, average of replicates, read-out: EC50 AVG): 1.9 nM
EC50 ([1]; DCF +, read-out: EC50 Reported value): 1.9 ± 0.2 nM
EC50 [1, 7]: 2.01 nM and 2.18 nM and 1.52 nM
EC50 ([1]; DCF -, average of replicates, read-out: EC50 AVG): 2.02 nM
EC50 ([1]; DCF -, read-out: EC50 Reported value): 2 ± 0.1 nM
EC50 [1, 8]: 1.9 nM and 1.86 nM and 2.3 nM

Nc1ncnc2c1c(-c1ccccn1)cn2[C@@H]1O[C@H](CO)[C@@H](O)[C@H]1O [Compound 7]
EC50 [2, 9]: 265 nM
EC50 [3, 10]: 170 nM
EC50 ([4]; read-out: TbAT1-KO EC50, AVG, source data): 404 nM
EC50 [5, 11]: 433 nM

Nc1ncnc2c1ccn2[C@@H]1O[C@H](CO)[C@@H](O)[C@H]1O [Tubercidin (6)]
EC50 [1, 7]: 173 nM and 283 nM and 470 nM
EC50 [1, 8]: 227 nM and 250 nM
EC50 ([1]; Trypanosoma brucei, DCF +, average of replicates, read-out: EC50 AVG): 309 nM
EC50 ([1]; Trypanosoma brucei, DCF +, read-out: EC50 Reported value): 310 ± 70 nM
EC50 ([1]; Trypanosoma brucei, DCF -, average of replicates, read-out: EC50 AVG): 223 nM
EC50 ([1]; Trypanosoma brucei, DCF -, read-out: EC50 Reported value): 220 ± 10 nM
EC50 ([1]; Trypanosoma brucei, DCF -, single replicate, read-out: EC50): 194 nM

Nc1nc(N)nc(Nc2ccc([As]3SCC(CO)S3)cc2)n1 (stereo not shown) [Melarsoprol, reference compound]
BLI of the head region, RLU data ([6]; 3 wpi (start of treatment, 21 dpi)): 20700000 RLU and 53700000 RLU
BLI of the head region, RLU data ([6]; 4 wpi): 96900 RLU and 114000 RLU
BLI of the head region, RLU data ([6]; 5 wpi): 83900 RLU and 96500 RLU
BLI of the head region, RLU data ([6]; 6 wpi): 85000 RLU and 111000 RLU
BLI of the head region, RLU data ([6]; 7 wpi): 90100 RLU and 74800 RLU
BLI of the head region, RLU data ([6]; 8 wpi): 81700 RLU and 77100 RLU
BLI of the head region, RLU data ([6]; 9 wpi): 73000 RLU and 85000 RLU
RLU data, individual mice ([6]; 3 wpi): 133100000 RLU and 14890000 RLU
RLU data, individual mice ([6]; 4 wpi): 121700 RLU and 135100 RLU
RLU data, individual mice ([6]; 5 wpi): 112200 RLU and 109500 RLU
RLU data, individual mice ([6]; 6 wpi): 106700 RLU and 93980 RLU
RLU data, individual mice ([6]; 7 wpi): 99910 RLU and 79400 RLU
RLU data, individual mice ([6]; 8 wpi): 117400 RLU and 101400 RLU
RLU data, individual mice ([6]; 9 wpi): 93050 RLU and 80330 RLU
RLU data, individual mice ([6]; 11 wpi): 77170 RLU and 73440 RLU
RLU data, individual mice ([6]; 12 wpi): 62170 RLU and 64300 RLU
RLU data, individual mice ([6]; 14 wpi): 67840 RLU and 67090 RLU
parasite burdens in brain, spleen and fat by SL-RNA qPCR ([6]; tissues collected at 121 dpi): complete absence of parasite burdens
luminescent signal in the head region ([6]; to levels similar to a non-infected control mouse): rapid decline of the signal

N=C(N)c1ccc(OCCCCCOc2ccc(C(=N)N)cc2)cc1 [Pentamidine, reference compound]
EC50 ([2]; mean and SEM, n = 3, read-out: B48 EC50): 990 ± 160 nM
EC50 [2, 9]: 877 nM
RF (B48) [2, 12]: 94.6***
EC50 ([3]; mean and SEM, n = 3, read-out: Lister 427 EC50): 11 ± 1 nM
EC50 [3, 10]: 9.93 nM
EC50 ([4]; read-out: TbAT1-KO EC50, mean and SEM, n = 3): 18 ± 2 nM
RF (TbAT1-KO) ([4]; resistance factor: ratio of EC50 of resistant and Lister 427WT): 1.8**
EC50 ([5]; mean and SEM, n = 3, read-out: ISMR1 EC50): 140 ± 40 nM
EC50 [5, 11]: 138 nM
RF (ISMR1) [5, 12]: 13.8**
